Where two headings read alike, the source gives them in different places.
Assays:
Test in all cases: Ras-Raf disruption / FRET / MOA assay (BRAF RBD)
Format in all cases: biochemical
[1] = target: KRAS G12D (Homo sapiens, UniProt P01116+P62937, G12D); settings: with Cyclophilin A
In short: (§1)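 Compound-induced Ras–Cyclophilin A ternary complex disrupting BRAF RBD binding, read as IC50 from reduced TR-FRET ratio relative to DMSO. Final: Ras-GMPPNP 12.5 nM, BRAF RBD 50 nM, Cyclophilin A 25 μM, top compound 30 μM (3-fold, 10 points); 3 h at 25 °C, then 1.5 h with detection antibodies.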

[2] = target: KRAS G12S (Homo sapiens, UniProt P01116+P62937, G12S); settings: with Cyclophilin A
KRAS G12S, sequence (P01116 1-169 isoform P01116-2 G12S limits assumed): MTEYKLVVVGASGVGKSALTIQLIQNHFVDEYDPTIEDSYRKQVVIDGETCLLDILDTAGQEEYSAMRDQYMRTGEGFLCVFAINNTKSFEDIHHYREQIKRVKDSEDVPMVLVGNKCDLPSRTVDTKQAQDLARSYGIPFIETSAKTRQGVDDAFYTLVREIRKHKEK
KRAS G12S, sequence (P62937 whole entry): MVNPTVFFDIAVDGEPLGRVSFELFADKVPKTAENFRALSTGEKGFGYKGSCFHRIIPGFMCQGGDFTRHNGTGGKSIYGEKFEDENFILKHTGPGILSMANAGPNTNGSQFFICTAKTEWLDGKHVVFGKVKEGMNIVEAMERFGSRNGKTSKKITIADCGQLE
In short: as §1

[3] = target: KRAS G12V (Homo sapiens, UniProt P01116+P62937, G12V); settings: with Cyclophilin A
KRAS G12V, sequence (P01116 1-169 isoform P01116-2 G12V limits assumed): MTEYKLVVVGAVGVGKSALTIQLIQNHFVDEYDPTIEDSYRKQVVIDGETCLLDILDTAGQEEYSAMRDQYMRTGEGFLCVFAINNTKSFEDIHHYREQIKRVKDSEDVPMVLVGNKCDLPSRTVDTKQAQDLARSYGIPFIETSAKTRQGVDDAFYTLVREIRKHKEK
KRAS G12V, sequence (P62937 whole entry): as the sequence (P62937 whole entry) above
In short: as §1

[4] = target: KRAS G13C (Homo sapiens, UniProt P01116+P62937, G13C); settings: with Cyclophilin A
KRAS G13C, sequence (P01116 1-169 isoform P01116-2 G13C limits assumed): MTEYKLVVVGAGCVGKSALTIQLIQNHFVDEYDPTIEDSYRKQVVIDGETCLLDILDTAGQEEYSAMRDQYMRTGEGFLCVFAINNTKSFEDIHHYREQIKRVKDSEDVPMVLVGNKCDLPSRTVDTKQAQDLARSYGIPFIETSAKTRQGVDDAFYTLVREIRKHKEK
KRAS G13C, sequence (P62937 whole entry): as the sequence (P62937 whole entry) above
In short: as §1

[5] = target: KRAS G13D (Homo sapiens, UniProt P01116+P62937, G13D); settings: with Cyclophilin A
KRAS G13D, sequence (P01116 1-169 isoform P01116-2 G13D limits assumed): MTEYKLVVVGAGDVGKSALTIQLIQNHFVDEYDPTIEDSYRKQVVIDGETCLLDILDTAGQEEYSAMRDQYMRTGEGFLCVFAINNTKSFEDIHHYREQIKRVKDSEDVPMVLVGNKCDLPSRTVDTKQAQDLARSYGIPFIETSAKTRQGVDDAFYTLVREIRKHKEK
KRAS G13D, sequence (P62937 whole entry): as the sequence (P62937 whole entry) above
In short: as §1

[6] = target: KRAS Q61H (Homo sapiens, UniProt P01116+P62937, Q61H)
KRAS Q61H, sequence (P01116 1-169 isoform P01116-2 Q61H limits assumed): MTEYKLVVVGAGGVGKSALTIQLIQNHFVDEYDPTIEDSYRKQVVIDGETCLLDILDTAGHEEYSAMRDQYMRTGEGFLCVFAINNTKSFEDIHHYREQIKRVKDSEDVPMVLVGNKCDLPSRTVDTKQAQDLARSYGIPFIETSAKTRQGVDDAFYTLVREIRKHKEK
KRAS Q61H, sequence (P62937 whole entry): as the sequence (P62937 whole entry) above
In short: as §1

[7] = target: KRAS WT (Homo sapiens, UniProt P01116+P62937); settings: with Cyclophilin A
KRAS WT, sequence (P01116 1-169 isoform P01116-2 limits assumed): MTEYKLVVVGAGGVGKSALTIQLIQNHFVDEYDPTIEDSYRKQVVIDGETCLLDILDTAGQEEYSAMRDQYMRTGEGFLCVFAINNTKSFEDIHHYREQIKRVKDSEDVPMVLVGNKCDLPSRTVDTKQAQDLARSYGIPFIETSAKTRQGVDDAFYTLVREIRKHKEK
KRAS WT, sequence (P62937 whole entry): as the sequence (P62937 whole entry) above
In short: as §1

[8] = target: NRAS G12C (Homo sapiens, UniProt P01111+P62937, G12C)
NRAS G12C, sequence (P01111 whole entry G12C): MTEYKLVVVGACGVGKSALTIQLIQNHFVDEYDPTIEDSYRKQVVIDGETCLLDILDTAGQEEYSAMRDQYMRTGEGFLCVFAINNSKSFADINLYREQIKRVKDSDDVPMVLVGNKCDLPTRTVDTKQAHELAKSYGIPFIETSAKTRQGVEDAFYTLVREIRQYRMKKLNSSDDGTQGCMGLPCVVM
NRAS G12C, sequence (P62937 whole entry): as the sequence (P62937 whole entry) above
In short: as §1

[9] = target: NRAS Q61K (Homo sapiens, UniProt P01111+P62937, Q61K)
NRAS Q61K, sequence (P01111 whole entry Q61K): as the sequence (P01111 whole entry G12C) above, with C12G, Q61K counted along it
NRAS Q61K, sequence (P62937 whole entry): as the sequence (P62937 whole entry) above
In short: as §1

[10] = target: NRAS Q61R (Homo sapiens, UniProt P01111+P62937, Q61R)
NRAS Q61R, sequence (P01111 whole entry Q61R): as the sequence (P01111 whole entry G12C) above, with C12G, Q61R counted along it
NRAS Q61R, sequence (P62937 whole entry): as the sequence (P62937 whole entry) above
In short: as §1

[11] = target: NRAS WT (Homo sapiens, UniProt P01111+P62937)
NRAS WT, sequence (P01111 whole entry): as the sequence (P01111 whole entry G12C) above, with C12G counted along it
NRAS WT, sequence (P62937 whole entry): as the sequence (P62937 whole entry) above
In short: as §1

[12] = target: KRAS G12C (Homo sapiens, UniProt P01116+P62937, G12C); settings: with Cyclophilin A
KRAS G12C, sequence (P01116 1-169 isoform P01116-2 G12C limits assumed): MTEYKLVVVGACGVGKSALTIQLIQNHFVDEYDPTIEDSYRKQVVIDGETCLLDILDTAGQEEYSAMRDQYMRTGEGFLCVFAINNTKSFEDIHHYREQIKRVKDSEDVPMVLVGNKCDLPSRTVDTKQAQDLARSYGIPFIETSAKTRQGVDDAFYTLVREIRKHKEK
KRAS G12C, sequence (P62937 whole entry): as the sequence (P62937 whole entry) above
In short: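 TR-FRET read-out after 1.5 h with anti-His Eu-W1024 (10 nM) and anti-GST APC (50 nM), following 3 h at 25 °C of compound (top 30 μM, 3-fold, 10 points) with 25 μM Cyclophilin A, 12.5 nM GMPPNP-loaded K-Ras G12C and 50 nM BRAF RBD; IC50 reported.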

[13] = Ras-Raf disruption, read-out: KRAS G12D FRET data IC50
[14] = Ras-Raf disruption, read-out: KRAS G12S FRET data IC50
[15] = Ras-Raf disruption, read-out: KRAS G12V FRET data IC50
[16] = Ras-Raf disruption, read-out: KRAS G13C FRET data IC50
[17] = Ras-Raf disruption, read-out: KRAS G13D FRET data IC50
[18] = KRAS Q61H, read-out: KRAS Q61H FRET data IC50
[19] = Ras-Raf disruption, read-out: KRAS WT FRET data IC50
[20] = NRAS G12C, read-out: NRAS G12C FRET data IC50
[21] = NRAS Q61K, read-out: NRAS Q61K FRET data IC50
[22] = NRAS Q61R, read-out: NRAS Q61R FRET data IC50
[23] = NRAS WT, read-out: NRAS WT FRET data IC50
[24] = Ras-Raf disruption, read-out: KRAS G12C FRET data IC50
[25] = KRAS G12D FRET data IC50, Ras-Raf disruption
[26] = KRAS G12S FRET data IC50, Ras-Raf disruption
[27] = KRAS G12V FRET data IC50, Ras-Raf disruption
[28] = KRAS G13C FRET data IC50, Ras-Raf disruption
[29] = KRAS G13D FRET data IC50, Ras-Raf disruption
[30] = KRAS WT FRET data IC50, Ras-Raf disruption
[31] = NRAS G12C FRET data IC50, NRAS G12C
[32] = KRAS G12C FRET data IC50, Ras-Raf disruption

KRAS G12D, sequence (P01116 1-169 isoform P01116-2 G12D limits assumed): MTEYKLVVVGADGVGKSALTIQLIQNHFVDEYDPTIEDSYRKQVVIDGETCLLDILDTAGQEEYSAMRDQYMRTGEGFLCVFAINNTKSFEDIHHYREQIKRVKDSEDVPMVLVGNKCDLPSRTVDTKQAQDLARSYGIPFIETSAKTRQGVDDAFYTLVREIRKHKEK
KRAS G12D, sequence (P62937 whole entry): as the sequence (P62937 whole entry) above

Compound | IC50 [1, 13] [nM] | IC50 [2, 14] [nM] | IC50 [3, 15] [nM] | IC50 [4, 16] [nM] | IC50 [5, 17] [nM] | IC50 [6, 18] [nM] | IC50 [7, 19] [nM] | IC50 [8, 20] [nM] | IC50 [9, 21] [nM] | IC50 [10, 22] [nM] | IC50 [11, 23] [nM] | IC50 [12, 24] [nM] | IC50 [1, 25] [nM] | IC50 [2, 26] [nM] | IC50 [3, 27] [nM] | IC50 [4, 28] [nM] | IC50 [5, 29] [nM] | IC50 [6] [nM] | IC50 [7, 30] [nM] | IC50 [8, 31] [nM] | other results
CCn1c(-c2cccnc2[C@H](C)OC)c2c3cc(ccc31)-c1csc(n1)C[C@H](NC(=O)[C@H](C(C)C)N(C)C(=O)N1CCCN(C(=O)[C@@H]3CN3)CC1)C(=O)N1CCC[C@H](N1)C(=O)OCC(C)(C)C2 (atropisomer, axis not shown) [Example 223] | 100 to 1000 | 100 to 1000 | 100 to 1000 | 100 to 1000 | 100 to 1000 | 10 to 100 | 10 to 100 | 10 to 100 | 10 to 100 | 10 to 100 | 10 to 100 | 10 to 100 |  |  |  |  |  |  |  |  | 
CCn1c(-c2cccnc2[C@H](C)OC)c2c3cc(ccc31)-c1cc(O)cc(c1)C[C@H](NC(=O)[C@H](C1CCCC1)N(C)C(=O)CN(C)C(=O)[C@H]1N[C@H]1C1(OC)CC1)C(=O)N1CCC[C@H](N1)C(=O)OCC(C)(C)C2 (single isomer, unassigned) [Example 322] |  |  |  |  |  |  |  |  |  |  |  |  | 100 to 1000 | 10 to 100 | 10 to 100 | 10 to 100 | 100 to 1000 | 10 to 100 | 10 to 100 | 10 to 100 | IC50 [9]: 100 to 1000 nM; IC50 [10]: 100 to 1000 nM; IC50 [11]: 10 to 100 nM; IC50 [12, 32]: 10 to 100 nM
CCn1c(-c2cccnc2[C@H](C)OC)c2c3cc(ccc31)-c1cc(O)cc(c1)C[C@H](NC(=O)[C@H](C1CCCC1)N(C)C(=O)CN(C)C(=O)[C@H]1N[C@H]1C1(F)CC1)C(=O)N1CCC[C@H](N1)C(=O)OCC(C)(C)C2 [Example 315] |  |  |  |  |  |  |  |  |  |  |  |  | 10 to 100 | 10 to 100 | 10 to 100 | 10 to 100 | 10 to 100 | 10 to 100 | 10 to 100 | 10 to 100 | IC50 [9]: 10 to 100 nM; IC50 [10]: 100 to 1000 nM; IC50 [11]: < 10 nM; IC50 [12, 32]: 10 to 100 nM
CCn1c(-c2cccnc2[C@H](C)OC)c2c3cc(ccc31)-c1cc(O)cc(c1)C[C@H](NC(=O)[C@H](C(C)C)N1CC[C@]3(CCN(C(=O)[C@@H]4N[C@@H]4C4CC4)C3)C1=O)C(=O)N1CCC[C@H](N1)C(=O)OCC(C)(C)C2 [Example 305] | < 10 | 10 to 100 | 10 to 100 | 10 to 100 | 100 to 1000 | 10 to 100 | 10 to 100 | 10 to 100 | 100 to 1000 | 100 to 1000 | 10 to 100 | 10 to 100 |  |  |  |  |  |  |  |  | 
CCn1c(-c2cccnc2[C@H](C)OC)c2c3cc(ccc31)-c1cc(O)cc(c1)C[C@H](NC(=O)[C@H](C(C)C)N(C)C(=O)C1CCN(S(=O)(=O)[C@H]3CN3C)CC1)C(=O)N1CCC[C@H](N1)C(=O)OCC(C)(C)C2 (single isomer, unassigned) [Example 108] | 1000 to 10000 | 100 to 1000 | 100 to 1000 | 10 to 100 | 100 to 1000 | 10 to 100 | 100 to 1000 | 100 to 1000 | 100 to 1000 | 100 to 1000 | 100 to 1000 | 100 to 1000 |  |  |  |  |  |  |  |  | 
CCn1c(-c2cccnc2[C@H](C)OC)c2c3cc(ccc31)-c1csc(n1)C[C@H](NC(=O)[C@H](C(C)C)N(C)C(=O)N1CCCN(C(=O)[C@H]3CN3)CC1)C(=O)N1CCC[C@H](N1)C(=O)OCC(C)(C)C2 (atropisomer, axis not shown) [Example 222] | 100 to 1000 | 10 to 100 | 100 to 1000 | 100 to 1000 | 100 to 1000 | 10 to 100 | 10 to 100 | 10 to 100 | 10 to 100 | 10 to 100 | 10 to 100 | 10 to 100 |  |  |  |  |  |  |  |  | 
CCn1c(-c2cccnc2[C@H](C)OC)c2c3cc(ccc31)-c1csc(n1)C[C@H](NC(=O)[C@H](C(C)C)N(C)C(=O)N1CC(N(C)C(=O)[C@@H]3CN3)C1)C(=O)N1CCC[C@H](N1)C(=O)OCC(C)(C)C2 (atropisomer, axis not shown) [Example 219] | 1000 to 10000 | 100 to 1000 | 100 to 1000 | 100 to 1000 | 100 to 1000 | 100 to 1000 | 100 to 1000 | 100 to 1000 | 10 to 100 | 100 to 1000 | 100 to 1000 | 100 to 1000 |  |  |  |  |  |  |  |  | 
CCn1c(-c2cccnc2[C@H](C)OC)c2c3cc(ccc31)-c1cc(O)cc(c1)C[C@H](NC(=O)[C@H](C1CCCC1)N(C)C(=O)CN(C)C(=O)[C@@H]1N[C@@H]1C1CC1)C(=O)N1CCC[C@H](N1)C(=O)OCC(C)(C)C2 [Example 170] |  |  |  |  |  |  |  |  |  |  |  |  | 10 to 100 | 10 to 100 | 10 to 100 | 10 to 100 | 10 to 100 | 10 to 100 | 10 to 100 | 10 to 100 | IC50 [9]: 10 to 100 nM; IC50 [10]: 10 to 100 nM; IC50 [11]: 10 to 100 nM; IC50 [12, 32]: 10 to 100 nM
CCn1c(-c2cc(C3CCN(C)CC3)cnc2[C@H](C)OC)c2c3cc(ccc31)-c1cc(O)cc(c1)C[C@H](NC(=O)[C@H](C1CCCC1)N(C)C(=O)CN(C)C(=O)[C@H]1CN1)C(=O)N1CCC[C@H](N1)C(=O)OCC(C)(C)C2 [Example 230] |  |  |  |  |  |  |  |  |  |  |  |  | 10 to 100 | 10 to 100 | 10 to 100 | < 10 | 10 to 100 | < 10 | 10 to 100 | < 10 | IC50 [9]: 100 to 1000 nM; IC50 [10]: 10 to 100 nM; IC50 [11]: 10 to 100 nM; IC50 [12, 32]: < 10 nM
CCn1c(-c2cccnc2[C@H](C)OC)c2c3cc(ccc31)-c1cc(O)cc(c1)C[C@H](NC(=O)[C@H](C1CCCC1)N(C)C(=O)CN(C)C(=O)[C@@H]1N[C@@H]1C1(C#N)CC1)C(=O)N1CCC[C@H](N1)C(=O)OCC(C)(C)C2 (single isomer, unassigned) [Example 308] |  |  |  |  |  |  |  |  |  |  |  |  | 100 to 1000 | 10 to 100 | 100 to 1000 | 10 to 100 | 100 to 1000 | 10 to 100 | 10 to 100 | 10 to 100 | IC50 [9]: 100 to 1000 nM; IC50 [10]: 100 to 1000 nM; IC50 [11]: 10 to 100 nM; IC50 [12, 32]: 10 to 100 nM
CCN1C[C@@H]1C(=O)N(C)CC(=O)N(C)[C@H](C(=O)N[C@H]1Cc2cc(O)cc(c2)-c2ccc3c(c2)c(c(-c2cccnc2[C@H](C)OC)n3CC)CC(C)(C)COC(=O)[C@@H]2CCCN(N2)C1=O)C1CCCC1 (stereo partly drawn) [Example 309] |  |  |  |  |  |  |  |  |  |  |  |  | 10 to 100 | 10 to 100 | 10 to 100 | 10 to 100 | 10 to 100 | 10 to 100 | 10 to 100 | < 10 | IC50 [9]: 100 to 1000 nM; IC50 [10]: 100 to 1000 nM; IC50 [11]: 10 to 100 nM; IC50 [12, 32]: < 10 nM
CCn1c(-c2cccnc2[C@H](C)OC)c2c3cc(ccc31)-c1cc(O)cc(c1)C[C@H](NC(=O)[C@H](C(C)C)N(C)C(=O)[C@H]1CCN(C(=O)C3OC3c3ccccc3)C1)C(=O)N1CCC[C@H](N1)C(=O)OCC(C)(C)C2 (stereo partly drawn) [Example 331] | 100 to 1000 | 10 to 100 | 10 to 100 | 10 to 100 | 100 to 1000 | 10 to 100 | 10 to 100 | 10 to 100 | 100 to 1000 | 100 to 1000 | 10 to 100 | < 10 |  |  |  |  |  |  |  |  | 

Source: US20230233569A1 (Revolution Medicines, Inc., priority 2020, published 2023)
